The values that follow come from PubChem BioAssay AID608 (Sanford-Burnham Center for Chemical Genomics, 2007).

“And” between values parts separate entries of the source, which are not always exact repeats. Equal values may be shown once. The source made the active and inactive calls. The rule behind the calls is not given here.

The target of this experiment is Peptidyl-prolyl cis-trans isomerase FKBP1A (Homo sapiens) (UniProt P62942). The experiment can be described thus: FKBP12 binders, biophysical, NMR detection (AID 608). Conditions: NMR binding, purified FKBP12.
Sequence of Peptidyl-prolyl cis-trans isomerase FKBP1A (Homo sapiens) (P62942 whole entry, looked up): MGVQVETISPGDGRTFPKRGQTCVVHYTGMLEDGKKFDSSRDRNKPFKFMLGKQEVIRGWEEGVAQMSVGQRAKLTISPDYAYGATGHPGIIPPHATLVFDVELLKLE
What is called Kd is the constant that tells how readily two partners part at equilibrium. In the case of `CC(=O)O[C@H]1C[C@@H](OC(C)=O)C(C)(C)C2C[C@@H](OC(C)=O)[C@]3(C)C(CC[C@@]4(C)[C@H](c5ccoc5)C(=O)[C@H]5O[C@]543)[C@]21C` (stereo partly specified), the Kd is > 4 mM (inactive).

Regarding `CNC(=O)C1COc2ccccc2O1` (stereo unspecified), the Kd was > 4 mM (inactive).

Turning to `CC(=O)O[C@@H]1CC2C(C)(C)C(=O)C=C[C@]2(C)C2CC[C@@]3(C)[C@H](c4ccoc4)OC(=O)[C@H]4O[C@]43[C@@]21C` (stereo partly specified), the Kd was > 4 mM (inactive).

Take `NCCCCN`: the Kd is > 4 mM (inactive).

In the case of `C[C@@H](N)[C@@H](O)c1ccccc1`, the Kd was > 4 mM (inactive).

Consider `O=C(Nc1nncs1)Oc1ccccc1`, for which the Kd is > 4 mM (inactive).

Regarding `CC(=O)Nn1cc2c(=O)n(C)c(=O)n(C)c2c1`, the Kd was > 4 mM (inactive).

In the case of `O=C(Nc1ccc(OCC(=O)N2CCOCC2)cc1)c1ccccc1F`, the Kd entry was “inactive”.

Consider `COc1nc(N2CCOCC2)nc(N)c1[N+](=O)[O-]`, for which the Kd was > 4 mM (inactive).

On to `NC1=C(c2ccccc2)C(=O)c2ccccc21`, for which the Kd was > 4 mM (inactive).

As for `Nc1nc(SCc2ccccc2)ns1`, the Kd is > 4 mM (inactive).

With `O=C(CSc1ncccn1)Nc1nccs1`, the Kd was > 4 mM (inactive).

For `C(=C\c1ccccc1)/C=N/n1cnnc1`, the Kd is > 4 mM (inactive).

`Cc1ccc(Nc2nnns2)cc1C`: the Kd is > 4 mM (inactive).

As to `O=C(O)CN1C(=O)c2ccc(C(=O)O)cc2C1=O`, the Kd is > 4 mM (inactive).

For the compound `COc1cc(O)c(C)c(O)c1`, the Kd is > 4 mM (inactive).

In the case of `Cc1cc(O)c2c(c1)C(=O)c1cccc(O)c1C2=O`, the Kd was > 4 mM (inactive).

Regarding `O=C(COc1ccc(F)cc1)N1CCOCC1`, the Kd entry is “inactive”.

Take `Oc1cc2c(cc1O)C1c3ccc(O)c(O)c3OCC1(O)C2` (stereo unspecified): the Kd was > 4 mM (inactive).

As for `Cn1c(=O)[nH]c(=O)c2c1ncn2CCN1CCCCC1`, the Kd is > 4 mM (inactive).

For `O=C(CSc1ccc(Cl)cc1)N1CCOCC1`, the Kd was 0.014 mM and 0.019 mM.

Regarding `CC(=O)n1c(N)nc2ccccc21`, the Kd is > 4 mM (inactive).

For `CC(=O)c1cccc(NC(=O)N2CCc3ccccc3C2)c1`, the Kd was > 4 mM (inactive).

For `COC(=O)C1COCCN1C(=O)CS(=O)(=O)c1ccc(C(C)C)cc1` (stereo unspecified), the Kd entry was “inactive”.

With `CCNC(=S)Nc1c(C)n(C)n(-c2ccccc2)c1=O`, the Kd is > 4 mM (inactive).

Turning to `COc1cc2occc2c2oc(=O)ccc12`, the Kd was > 4 mM (inactive).

With `Cc1nc2cc(NC(=O)Nc3nccs3)ccc2n1C`, the Kd was > 4 mM (inactive).

In the case of `CNC(=O)c1cc2cccc(OC)c2oc1=O`, the Kd was > 4 mM (inactive).

`Cc1cc(NC(=O)c2cc(C)on2)no1`: the Kd was > 4 mM (inactive).

Take `Brc1ccc(-c2nc(-c3ccncc3)no2)o1`: the Kd is > 4 mM (inactive).

In the case of `O=c1[nH]c(N2CCOCC2)nc2ccccc12`, the Kd was > 4 mM (inactive).

On to `CC(=O)NS(=O)(=O)c1ccc(C)cc1`, for which the Kd was > 4 mM (inactive).

As to `C=CCn1c(N)c(C(=O)N2CCOCC2)sc1=S`, the Kd is > 4 mM (inactive).

In the case of `O=C(c1cccc(C(F)(F)F)c1)N1CCCC1`, the Kd is > 4 mM (inactive).

`CSc1nc2cc(F)c(F)cc2n1C`: the Kd is > 4 mM (inactive).

With `COc1ccc(C)cc1S(=O)(=O)Nc1ccccc1C`, the Kd was > 4 mM (inactive).

On to `O=C(C1CCC(C(=O)N2CCCC2)CC1)N1CCCC1` (stereo unspecified), for which the Kd was > 4 mM (inactive).

On to `O=C(Nc1cccc(Cl)c1Cl)c1ccccc1OCC(=O)N1CCOCC1`, for which the Kd is > 4 mM (inactive).

Turning to `O=C(Nc1ccc(Cl)cn1)c1cnn2cccnc12`, the Kd was > 4 mM (inactive).

For the compound `COc1ccc2c(c1OC)C(=O)O[C@@H]2[C@@H]1c2cc3c(cc2CCN1C)OCO3`, the Kd is > 4 mM (inactive).

Turning to `COc1cc(C(=O)NCC2CCCO2)cc(OC)c1OC` (stereo unspecified), the Kd is > 4 mM (inactive).

As to `CC1(C)C2CC(=O)[C@]3(C)C(CC[C@@]4(C)[C@H](c5ccoc5)OC(=O)C5OC543)[C@@]2(C)[C@@H](O)C[C@H]1O` (stereo partly specified), the Kd is > 4 mM (inactive).

Consider `N#Cc1nc(-c2ccccc2Cl)oc1N1CCOCC1`, for which the Kd was > 4 mM (inactive).

On to `O=C(Cc1ccc(F)cc1)Nc1ncccn1`, for which the Kd was > 4 mM (inactive).

Turning to `OCCCc1nc2ccccc2[nH]1`, the Kd is > 4 mM (inactive).

Turning to `CC(=O)c1c(C)nc(C)nc1NC(=O)C(C)C`, the Kd is > 4 mM (inactive).

Turning to `CC(C)CNc1cc(=O)n(C)c(=O)n1C`, the Kd is > 4 mM (inactive).

With `COc1ccc(C(C)=O)c(OC)c1`, the Kd was > 4 mM (inactive).

In the case of `COc1cc2ccc(=O)oc2c(OC)c1OC`, the Kd is > 4 mM (inactive).

`Cc1csc(NC(=O)c2ccoc2C)n1`: the Kd was > 4 mM (inactive).

Regarding `O=C(O)CCC(=O)NCc1cccnc1`, the Kd is > 4 mM (inactive).

With `NC1=NCc2ccccc21`, the Kd is > 4 mM (inactive).

Take `CNC(=S)Nc1ncn(Cc2cccc(F)c2)n1`: the Kd is > 4 mM (inactive).

`O=c1c(-c2ccccc2)coc2cc(O)cc(O)c12`: the Kd was > 4 mM (inactive).

Turning to `C=C1C[C@]23C[C@@]1(O)CC[C@H]2[C@@]12C=C[C@H](O)C(C)(C(=O)O1)[C@H]2[C@@H]3C(=O)O`, the Kd is > 4 mM (inactive).

In the case of `Nc1nnc(COc2cccc(C(F)(F)F)c2)s1`, the Kd is > 4 mM (inactive).

As to `O=C1NC(=Nc2ccccc2Cl)SC1(CO)CO`, the Kd is > 4 mM (inactive).

With `CC(C)c1ccccc1NC(=O)c1cnccn1`, the Kd was > 4 mM (inactive).

Consider `CSc1ccccc1NC(=O)c1c(C)noc1C`, for which the Kd is > 4 mM (inactive).

Consider `O=C(O)CNC(=O)c1ccccc1`, for which the Kd is > 4 mM (inactive).

In the case of `c1ccc(Cc2nnc3sc(-c4ccncc4)nn23)cc1`, the Kd was > 4 mM (inactive).

Turning to `[O-][n+]1cc(O)c(CN2CCOCC2)c2ccccc21`, the Kd is > 4 mM (inactive).

As for `COC(=O)c1ccc2nccnc2c1`, the Kd was > 4 mM (inactive).

`CC(=O)NC(=S)Nc1ccc(C(C)=O)cc1`: the Kd is > 4 mM (inactive).

Take `Cc1cc(NC(=O)c2cccc(S(C)(=O)=O)c2)no1`: the Kd is > 4 mM (inactive).

`Cc1oc(-c2ccccc2)cc1CO`: the Kd was > 4 mM (inactive).

Take `O=C(c1ccccc1)c1ccccc1C(=O)N1CCOCC1`: the Kd is > 4 mM (inactive).

In the case of `CC(C)(O)CC[C@@H](O)[C@](C)(O)C1CC[C@@]2(O)C3=CC(=O)C4C[C@@H](O)[C@@H](O)C[C@]4(C)C3CC[C@]12C` (stereo partly specified), the Kd is > 4 mM (inactive).

On to `CC1C[C@H]2CC(=O)[C@H]3CCCN4CCC[C@H]2[C@]34C1` (stereo partly specified), for which the Kd is > 4 mM (inactive).

Turning to `O=C(NC1CC1)c1ccccc1[N+](=O)[O-]`, the Kd was > 4 mM (inactive).

Turning to `COC(=O)c1cc(C)on1`, the Kd is > 4 mM (inactive).

Consider `CNC(Cc1c[nH]c2ccccc12)C(=O)O` (stereo unspecified), for which the Kd is > 4 mM (inactive).

In the case of `O=C(O)Cn1nnn(-c2ccccc2)c1=S`, the Kd was > 4 mM (inactive).

For `O=C(CSc1ccc(C(F)(F)F)cc1[N+](=O)[O-])N1CCOCC1`, the Kd was 0.448 mM.

As to `Nc1nc(-c2ccccc2)ns1`, the Kd is > 4 mM (inactive).

On to `CCP(=O)(CC)c1cccc(C)c1`, for which the Kd is > 4 mM (inactive).

`N[C@@H](CCC(=O)N[C@@H](CS)C(=O)NCC(=O)O)C(=O)O`: the Kd was > 4 mM (inactive).

For `COc1ccc(Cl)cc1-c1n[nH]c(=S)n1C`, the Kd was > 4 mM (inactive).

As for `CCOC(=O)c1[nH]c(C)cc1C`, the Kd is > 4 mM (inactive).

Regarding `CCCCC(Nc1n[nH]c(=O)[nH]c1=O)C(=O)O` (stereo unspecified), the Kd is > 4 mM (inactive).

In the case of `CC(C)=CCC/C(C)=C/CC/C(C)=C/CC/C(C)=C/CC/C(C)=C/CC/C(C)=C/CC/C(C)=C/CC/C(C)=C/CC/C(C)=C/CO`, the Kd was > 4 mM (inactive).

As to `Nc1nc2ccc(N3CCOCC3)cc2s1`, the Kd is > 4 mM (inactive).

For `O=c1[nH]c(O)c(C=NCc2cccs2)c(=O)[nH]1`, the Kd is > 4 mM (inactive).

Regarding `CC(=O)CC1(O)C(=O)Nc2ccc(Br)cc21` (stereo unspecified), the Kd was > 4 mM (inactive).

Regarding `Nc1cc2ccccc2cn1`, the Kd was > 4 mM (inactive).

Consider `CCc1ccccc1NC(=O)c1ccoc1C`, for which the Kd is > 4 mM (inactive).

As for `Nc1ccccc1N1CCOCC1`, the Kd is > 4 mM (inactive).

`NC(CCC(=O)Nc1ccc([N+](=O)[O-])cc1)C(=O)O` (stereo unspecified): the Kd is > 4 mM (inactive).

With `c1cc2c(cc1[C@H]1OC[C@H]3[C@@H]1CO[C@H]3c1ccc3c(c1)OCO3)OCO2`, the Kd is > 4 mM (inactive).

In the case of `O=C(Cn1c(-c2cscn2)nc2ccccc21)Nc1ccc(Oc2ccc(F)cc2)cc1`, the Kd is > 4 mM (inactive).

For `C=C1C([C@]2(C)C(CC(=O)OC)[C@@](C)(COC(C)=O)OC(=O)C[C@@H]2OC(C)=O)[C@@H](OC=O)[C@H](OC(=O)C(OC(C)=O)C(C)CC)[C@@]2(C)[C@H](c3ccoc3)CC(=O)C12O` (stereo partly specified), the Kd was > 4 mM (inactive).

As for `O=C(NN1C(=O)c2ccccc2C1=O)c1cccs1`, the Kd was > 4 mM (inactive).

For the compound `Cc1n[nH]c(C)c1N`, the Kd was > 4 mM (inactive).

`OCc1ccc(-n2ccnc2)cc1`: the Kd is > 4 mM (inactive).

Take `CC(=O)Nc1ccc2c(c1)CCC2=O`: the Kd is > 4 mM (inactive).

For `CC(=O)Nc1ccc(N(C)C(C)=O)cc1`, the Kd was > 4 mM (inactive).

Regarding `Cc1cc(C(=O)O)n[nH]1`, the Kd is > 4 mM (inactive).

For the compound `COc1ccc(Cl)cc1NS(=O)(=O)N1CCCCC1`, the Kd result is “inactive”.

Turning to `N#Cc1c[nH]n2c(=O)cc(Cc3ccccc3)nc12`, the Kd is > 4 mM (inactive).

Turning to `CCOc1ccc2ccccc2c1C(=O)N1CCOCC1`, the Kd is > 4 mM (inactive).

Turning to `NC(=O)CC(=O)NC12CC3CC(CC(C3)C1)C2`, the Kd is > 4 mM (inactive).
